Assay results from patent US7582786B2, “Synthetic catalytic free radical scavengers useful as antioxidants for prevention and therapy of disease” (Eukarion Inc., priority 1996, dated 2009).
“Also recorded” adds a separate entry of the source.

Key:
[1] = test system: MRL/lpr mice; test: Lifespan of autoimmune MRL/lpr mice; assay type: in vivo; conditions: 1 mg/mouse intraperitoneally three times per week
Source text: MRL/lpr mice develop autoantibodies and numerous autoimmune associated pathologies and die prematurely (mean lifespan ˜150 days). They are considered a mouse model for autoimmune disorders such as lupus. […] Control mice received vehicle injections only or were left untreated.
MRL/lpr mice develop autoantibodies and numerous autoimmune associated pathologies and die prematurely (mean lifespan˜150 days). They are considered a mouse model for autoimmune disorders such as lupus. […] Control mice received vehicle injections only or were left untreated.

[2] = test system: Rat brain slices; test: Rat brain slice ischemia/reoxygenation EPSP system; assay type: cell-based; conditions: 50 μM C7
Description: A widely used assay to determine the therapeutic potential of molecules in brain ischemia (stroke) consists of evaluating their ability to prevent irreversible damage induced by an anoxic episode in brain slices maintained under physiological conditions. Rat brain slices were maintained at 35° C. in an interface chamber in an artificial cerebrospinal fluid containing: 124 mM NaCl, 3 mM KCl, 1.25 mM KH2PO4, 3 mM CaCl, 1 mM MgCl2, 26 mM NaHCO3, 10 mM D-glucose, and 2 mM L-ascorbate, continuously gassed with a mixture of O2:CO2 (95:5). The atmosphere of the chamber was also continuously gased with the mixture of O2:CO2 (95:5), except during the-anoxic episode when it was replaced by N2. Axons were electrically stimulated and the evoked excitatory post-synaptic potentials (EPSPs) were recorded using microelectrodes.
The extent of permanent damage can be quantified by measuring both the amplitude (in mV) and the initial slope (in mV/msec) of the EPSP.
After 5 minutes of baseline recording, O2 was replaced by N2 for an average of 5 minutes. O2 was then reintroduced and recording was continued for another 50 minutes. […] In contrast, recovery in untreated brain slices was only about 40% of pre-ischemia levels.
As an additional assessment of efficacy, the percentage of viable slices following repeated ischemic episodes was evaluated. […]

[3] = SOD activity, xanthine/xanthine oxidase with NBT as acceptor (Example 2); assay type: biochemical
Description: Superoxide dismutase (SOD) activity was assayed by following the inhibition of the reduction of an electron acceptor molecule in the presence of the free-radical generating system xanthine/xanthine oxidase (McCord et al. (1973) Superoxide and Superoxide Dismutase in “Oxidases and Related Redox Systems, vol. I, King et al. eds., University Park press, Baltimore, pp. 51-76). The assay mixture consisted of 50 mM sodium phosphate, pH 7.8, 120 μM xanthine, 0.2 units/ml xanthine oxidase, with acceptor molecule and salen manganese compound, as indicated. Assays were conducted at 27±0.2° C. using a water-jacketed cell holder in a Beckman DU7400 spectrophotometer. In most cases, oxidized cytochrome c, at 0.13 mg/ml, was employed as acceptor and its reduction was monitored spectrophotometrically at 550 nm. In some experiments, nitroblue tetrazolium (NBT), at 80 μM, was substituted for cytochrome c as the acceptor. NBT reduction was also monitored at 550 nm. An estimated extinction coefficient for NBT reduction, 20,800 M^−1cm^−1, determined empirically by exhaustive reduction of NBT in the reaction mixture described above, was employed where indicated. This value agreed well with reported extinction coefficients for reduced tetrazolium dyes. […] Conversion of xanthine to urate was calculated using ε290's of […] for urate and 4050 M^−1cm^−1 for xanthine. […]

[4] = In vitro model for acidosis-induced mucosal injury
[5] = test system: Rats; test: Ischemia-reperfusion induced kidney damage in the rat; assay type: in vivo; conditions: 0.2 mg/kg single intravenous bolus at beginning of reperfusion
Description: Rats (“Untreated” and “C40” groups) were unilaterally nephrectomized. The remaining renal artery was clamped for 75 min then reperfused. Kidney function was assessed by determining creatinine levels in the blood. Where indicated, rats received C40 as a single intravenous bolus injection (0.2 mg/kg) at the beginning of the reperfusion period. Bilaterally nephrectomized rats, showing maximal creatinine levels in the absence of kidney function, died on day 2.

[6] = test system: mice; test: Mouse skin transplantation model; assay type: in vivo; conditions: 50 mg/kg single intraperitoneal injection at grafting
Description: In this model, donor and recipient mice were immunologically mismatched (ClassI/Class II MHC mismatched). A piece of skin (˜1 cm^2) from the tail of a donor mouse was transplanted onto the back of a recipient mouse. The graft was bandaged and observed daily for rejection, as indicated by loss of vascularization and necrosis. Recipient mice received vehicle (Control) or 50 mg/kg C40 as a single intraperitoneal injection at the time of grafting.

Row | SMILES | lifespan [1] | percentage of viable slices following repeated ischemic episodes [2] [%] | NBT reduction ([3]; 0.1 to 6 μM C7) | inhibition of NBT reduction ([3]; about 1.7 nmoles C7) | protection against acidosis-induced mucosal injury [4] | kidney damage, creatinine levels in the blood [5] | graft rejection [6]
1 | [Cl][Mn]1[O]c2ccccc2C=NCCN=Cc2ccccc2[O]1 [Compound C7] | prolongs the life | 70 | inhibited the rate of NBT reduction in a concentration-dependent manner; also recorded: inhibits NBT reduction | about 59% | protective | – | –
2 | COc1cccc2c1[O][Mn]([Cl])[O]c1c(cccc1OC)C=NCCN=C2 [Compound C40] | – | – | – | – | – | protects against ischemia-reperfusion induced kidney damage | delays rejection
